The values that follow come from patent US10294246B2, “Substituted boronic acids and boronate esters as immunoproteasome inhibitors” (MERCK PATENT GMBH, priority 2014, dated 2019).

Assay [1] concerns the target human immunoproteasome (LMP7) (Homo sapiens (Human), UniProt P28062). As to the kind of experiment: Determination of LMP7 activity (fluorescence intensity assay, Suc-LLVY-AMC). The format is biochemical. As to conditions: for Selectivity LMP7 vs Beta5: LMP7 versus Beta5; for IC50: purified human immunoproteasome 0.25 nM, Suc-LLVY-AMC 40 μM. The method, then: Determination of LMP7 Activity:
Measurement of LMP7 inhibition is performed in 384 well format based on fluorescence intensity assay.
Purified human immunoproteasome (0.25 nM) and serial diluted compounds in DMSO (range of concentrations from 30 μM to […]) or controls are incubated for 20 minutes at 25° C. in assay buffer containing 50 mM Tris pH 7.4, 0.03% SDS, 1 mM EDTA and 1% DMSO. The reaction is initiated by the addition of the fluorogenic peptide substrate, Suc-LLVY-AMC (Bachem 1-1395), at a concentration of 40 μM. After 60 minutes of incubation at 37° C., fluorescence intensity is measured at λex=350 nm and λem=450 nm with a fluorescence reader (Perkin Elmer Envision reader or equivalent).

The target of assay [2] is human constitutive proteasome (Beta5) (Homo sapiens (Human), UniProt P28074). Description: Determination of Beta5 activity (fluorescence intensity assay, Suc-LLVY-AMC). The class given is biochemical. Particulars: purified human constitutive proteasome 1.25 nM, Suc-LLVY-AMC 40 μM. The procedure:
Determination of Beta5 Activity:
Measurement of Beta5 inhibition is performed in 384 well format based on fluorescence intensity assay.
Purified human constitutive proteasome (1.25 nM) and serial diluted compounds in DMSO (range of concentrations from 30 μM to […]) or controls are incubated for 20 minutes at 25° C. in assay buffer containing 50 mM Tris pH 7.4, 0.03% SDS, 1 mM EDTA and 1% DMSO. The reaction is initiated by the addition of the fluorogenic peptide substrate, Suc-LLVY-AMC (Bachem 1-1395), at a concentration of 40 μM. After 60 minutes of incubation at 37° C., fluorescence intensity is measured at λex=350 nm and λem=450 nm with a fluorescence reader (Perkin Elmer Envision reader or equivalent).

As a reminder, the IC50 is the concentration at which inhibition is half-maximal. Read a low IC50 as greater potency. In the case of `O=C(Cc1ccccc1C(=O)N1CCOCC1)N[C@@H](Cc1coc2ccccc12)B(O)O` [Compound No. 63, [(1R)-2-(benzofuran-3-yl)-1-[[2-[2-(morpholine-4-carbonyl)phenyl]-acetyl]amino]ethyl]boronic acid], in assay [1], the “Selectivity LMP7 vs Beta5” value is on record as “+++++ (Selectivity ≥ 100)”. The IC50 is below 50 nM in assay [1] and 500 to 5000 nM in assay [2].

As to `N#Cc1ccccc1CC(=O)N[C@@H](C[C@@H]1COc2c(Cl)cccc21)B(O)O` [Compound No. 134, [(1R)-2-[(3S)-7-chloro-2,3-dihydrobenzofuran-3-yl]-1-[[2-(2-cyanophenyl)acetyl]amino]ethyl]boronic acid], in assay [1], the “Selectivity LMP7 vs Beta5” value is reported as “+++++ (Selectivity ≥ 100)” and the IC50 is below 50 nM. The same compound displayed an IC50 in assay [2] of 500 to 5000 nM.

In assay [1], `COc1ccc(CC(=O)N[C@@H](C[C@H]2COc3ccccc32)B(O)O)cc1` [Compound No. 122, [(1R)-2-[(3R)-2,3-dihydrobenzofuran-3-yl]-1-[[2-(4-methoxyphenyl)-acetyl]amino]ethyl]boronic acid] yielded an IC50 of 50 to 500 nM.

For the compound `Cc1ccc2c(c1C)OCC2C[C@H](NC(=O)Cc1ccccc1)B(O)O` (stereo partly drawn) [Compound No. 101, [(1R)-2-(6,7-dimethyl-2,3-dihydrobenzofuran-3-yl)-1-[(2-phenylacetyl)-amino]ethyl]boronic acid], in assay [1], the “Selectivity LMP7 vs Beta5” value is listed as “+++++ (Selectivity ≥ 100)”. In addition, the IC50 was below 50 nM in assay [1] and above 5000 nM in assay [2].

As to `Cc1ccc(C[C@H](NC(=O)Cc2ccccc2)B(O)O)cc1` [Compound No. 14, [(1R)-1-[(2-phenylacetyl)amino]-2-(p-tolyl)ethyl]boronic acid], in assay [1], the “Selectivity LMP7 vs Beta5” value is reported as “+++ (50 ≤ Selectivity < 70)” and the IC50 was in the range of 50 to 500 nM. The same compound came in with an IC50 in assay [2] of 500 to 5000 nM.

On to `O=C(Cc1c(Cl)cccc1Cl)N[C@@H](Cc1coc2ccccc12)B(O)O` [Compound No. 25, [(1R)-2-(benzofuran-3-yl)-1-[[2-(2,6-dichlorophenyl)acetyl]amino]-ethyl]boronic acid], for which, in assay [1], the “Selectivity LMP7 vs Beta5” value is recorded as “++++ (70 ≤ Selectivity < 100)” and the IC50 was below 50 nM. Moreover, the IC50 in assay [2] was 500 to 5000 nM.

As to `Cc1ccc(C[C@H](NC(=O)Cc2ccc(NC(=O)C(F)(F)F)cc2)B(O)O)c(C)c1` [Compound No. 53, [(1R)-2-(2,4-dimethylphenyl)-1-[[2-[4-[(2,2,2-trifluoroacetyl)amino]-phenyl]acetyl]amino]ethyl]boronic acid], in assay [1], the “Selectivity LMP7 vs Beta5” value is “++ (10 ≤ Selectivity < 50)” and the IC50 was below 50 nM. Further, the IC50 in assay [2] is 500 to 5000 nM.

As to `O=C(N[C@@H](Cc1coc2ccccc12)B(O)O)C(c1ccccc1)c1ccccc1` [Compound No. 68, [(1R)-2-(benzofuran-3-yl)-1-[(2,2-diphenylacetyl)amino]ethyl]boronic acid], in assay [1], the “Selectivity LMP7 vs Beta5” value is “+++++ (Selectivity ≥ 100)” and the IC50 was below 50 nM. In assay [2], this compound returned an IC50 of 500 to 5000 nM.

For the compound `O=C(Cc1ccc(OCCCO)cc1)N[C@@H](Cc1coc2ccccc12)B(O)O` [Compound No. 40, [(1R)-2-(benzofuran-3-yl)-1-[[2-[4-(3-hydroxypropoxy)phenyl]acetyl]-amino]ethyl]boronic acid], the “Selectivity LMP7 vs Beta5” value in assay [1] was “+++++ (Selectivity ≥ 100)”. Moreover, the results for the IC50 in assay [1] and in assay [2] were below 50 nM and 50 to 500 nM, respectively.

On to `N#Cc1ccccc1CC(=O)N[C@@H](Cc1coc2c(Cl)cccc12)B(O)O` [Compound No. 116, [(1R)-2-(7-chlorobenzofuran-3-yl)-1-[[2-(2-cyanophenyl)acetyl]amino]-ethyl]boronic acid], for which the “Selectivity LMP7 vs Beta5” value in assay [1] is “+++++ (Selectivity ≥ 100)”. In addition, the figures for the IC50 in assay [1] and in assay [2] were below 50 nM and 500 to 5000 nM, respectively.

In the case of `COc1ccc(CC(=O)N[C@@H](Cc2coc3ccccc23)B(O)O)cc1` [Compound No. 10, [(1R)-2-(benzofuran-3-yl)-1-[[2-(4-methoxyphenyl)acetyl]amino]ethyl]-boronic acid], in assay [1], the “Selectivity LMP7 vs Beta5” value is given as “++++ (70 ≤ Selectivity < 100)” and the IC50 was below 50 nM. The IC50 in assay [2] lay within 50 to 500 nM.

For `COc1ccc(CCC(=O)N[C@@H](CC2COc3c2ccc(C)c3C)B(O)O)nc1` (stereo partly drawn) [Compound No. 102, [(1R)-2-(6,7-dimethyl-2,3-dihydrobenzofuran-3-yl)-1-[3-(5-methoxy-2-pyridyl)propanoylamino]ethyl]boronic acid], in assay [1], the “Selectivity LMP7 vs Beta5” value is reported as “+++++ (Selectivity ≥ 100)” and the IC50 lay in the range of 50 to 500 nM. In assay [2], this compound had an IC50 above 5000 nM.

As for `COc1ccc(CCC(=O)N[C@@H](Cc2coc3c(C)c(C)ccc23)B(O)O)nc1` [Compound No. 95, [(1R)-2-(6,7-dimethylbenzofuran-3-yl)-1-[3-(5-methoxy-2-pyridyl)propanoylamino]ethyl]boronic acid], in assay [1], the “Selectivity LMP7 vs Beta5” value is reported as “+++++ (Selectivity ≥ 100)” and the IC50 is below 50 nM. The compound also gave an IC50 in assay [2] of 500 to 5000 nM.

Take `COc1ccc(CC(C(=O)N[C@@H](Cc2coc3ccccc23)B(O)O)c2ccccc2)cc1` (stereo partly drawn) [Compound No. 71, [(1R)-2-(benzofuran-3-yl)-1-[[3-(4-methoxyphenyl)-2-phenyl-propanoyl]amino]ethyl]boronic acid]: in assay [1], the “Selectivity LMP7 vs Beta5” value is given as “++++ (70 ≤ Selectivity < 100)” and the IC50 is below 50 nM. In addition, the IC50 in assay [2] was 500 to 5000 nM.

Take `COc1ccc(C(F)(F)C(=O)N[C@@H](Cc2coc3ccccc23)B(O)O)cc1` [Compound No. 51, [(1R)-2-(benzofuran-3-yl)-1-[[2,2-difluoro-2-(4-methoxyphenyl)acetyl]-amino]ethyl]boronic acid]: the “Selectivity LMP7 vs Beta5” value in assay [1] is on record as “+++++ (Selectivity ≥ 100)”. Besides, the IC50 in assay [2] was in the range of 500 to 5000 nM.

As for `O=C(Cc1ncccn1)N[C@@H](Cc1coc2ccccc12)B(O)O` [Compound No. 20, [(1R)-2-(benzofuran-3-yl)-1-[(2-pyrimidin-2-ylacetyl)amino]ethyl]-boronic acid], in assay [1], the “Selectivity LMP7 vs Beta5” value is recorded as “++ (10 ≤ Selectivity < 50)” and the IC50 is below 50 nM. This compound also came in with an IC50 in assay [2] of 50 to 500 nM.

Regarding `COc1ccccc1CC(=O)N[C@@H](Cc1coc2ccccc12)B(O)O` [Compound No. 27, [(1R)-2-(benzofuran-3-yl)-1-[[2-(2-methoxyphenyl)acetyl]amino]ethyl]-boronic acid], in assay [1], the “Selectivity LMP7 vs Beta5” value is “++++ (70 ≤ Selectivity < 100)” and the IC50 was below 50 nM. In addition, the IC50 in assay [2] fell in the range of 50 to 500 nM.

With `COc1ccc(CC(=O)N[C@@H](C[C@H]2COc3ccccc32)B(O)O)cc1` [Compound No. 115, [(1R)-2-[(3R)-2,3-dihydrobenzofuran-3-yl]-1-[[2-(4-methoxyphenyl)-acetyl]amino]ethyl]boronic acid], in assay [1], the “Selectivity LMP7 vs Beta5” value is listed as “+++++ (Selectivity ≥ 100)” and the IC50 was below 50 nM. In assay [2], this compound yielded an IC50 above 5000 nM.

Take `Cc1ccc(OCCC(=O)N[C@@H](Cc2coc3ccccc23)B(O)O)cc1` [Compound No. 7, [(1R)-2-(benzofuran-3-yl)-1-[3-(4-methylphenoxy)propanoylamino]-ethyl]boronic acid]: the “Selectivity LMP7 vs Beta5” value in assay [1] is “+++ (50 ≤ Selectivity < 70)”.

With `C[C@@H](C(=O)N[C@@H](Cc1coc2ccccc12)B(O)O)c1ccccc1C(=O)N(C)C` [Compound No. 97, [(1R)-2-(benzofuran-3-yl)-1-[[(2R)-2-[2-(dimethylcarbamoyl)-phenyl]propanoyl]amino]ethyl]boronic acid], in assay [1], the “Selectivity LMP7 vs Beta5” value is “+++++ (Selectivity ≥ 100)” and the IC50 is 50 to 500 nM. For the same compound, the IC50 in assay [2] is above 5000 nM.

For `C[C@H](C(=O)N[C@@H](C[C@@H]1COc2ccccc21)B(O)O)c1ccccc1C(=O)N(C)C` [Compound No. 107, [(1R)-2-[(3S)-2,3-dihydrobenzofuran-3-yl]-1-[[(2S)-2-[2-(dimethylcarbamoyl)phenyl]propanoyl]amino]ethyl]boronic acid], in assay [1], the “Selectivity LMP7 vs Beta5” value was “++ (10 ≤ Selectivity < 50)” and the IC50 was in the range of 500 to 5000 nM. For the same compound, the IC50 in assay [2] is above 5000 nM.

Regarding `COc1cccc2c(C[C@H](NC(=O)Cc3ccccc3)B(O)O)coc12` [Compound No. 92, [(1R)-2-(7-methoxybenzofuran-3-yl)-1-[(2-phenylacetyl)amino]ethyl]-boronic acid], in assay [1], the “Selectivity LMP7 vs Beta5” value is “+++++ (Selectivity ≥ 100)” and the IC50 was below 50 nM. The compound also registered an IC50 in assay [2] of 50 to 500 nM.

On to `CC(=O)Nc1ccccc1CC(=O)N[C@@H](Cc1coc2ccccc12)B(O)O` [Compound No. 103, [(1R)-1-[[2-(2-acetamidophenyl)acetyl]amino]-2-(benzofuran-3-yl)ethyl]boronic acid], for which the “Selectivity LMP7 vs Beta5” value in assay [1] was “++++ (70 ≤ Selectivity < 100)”. Besides, the IC50 in assay [2] is 500 to 5000 nM.

Take `CCO[C@@H](C(=O)N[C@@H](Cc1coc2ccccc12)B(O)O)c1ccccc1` [Compound No. 70, [(1R)-2-(benzofuran-3-yl)-1-[[(2R)-2-ethoxy-2-phenyl-acetyl]amino]-ethyl]boronic acid]: the “Selectivity LMP7 vs Beta5” value in assay [1] is given as “+++++ (Selectivity ≥ 100)”.
